From PMC4186413, “Identification of metabolic pathways and enzyme systems involved in the in vitro human hepatic metabolism of dronedarone, a potent new oral antiarrhythmic drug” (Pharmacology Research & Perspectives, 2014)

How the values were obtained:
Type in all cases: in vitro ADME
FMO-1, -3, and -5 = assay: Oxidation by recombinant human FMOs; conditions: 1 mg/mL, 5 μmol/L, 30 min, NADPH
Description: (§1) Recombinant human CYPs (Supersomes™; BD Gentes, Woburn, MA: CYP1A1, CYP1A2, CYP2A6, CYP2B6, CYP2C8, CYP2C9, CYP2C18, CYP2C19, CYP2D6, CYP2E1, CYP3A4 and CYP3A5), FMOs (Supersomes™: FMO1, FMO3, FMO5), MAOs (Supersomes™: MAO-A and MAO-B), and UGTs (Supersomes™: UGT1A1, UGT1A3, UGT1A4, UGT1A6, UGT1A7, UGT1A8, UGT1A9, UGT1A10, UGT2B4, UGT2B7, UGT2B15, and UGT2B17) expressed in baculovirus-infected insect cells and control microsomes from insect cells infected with wild-type baculovirus were all obtained from BD Gentest (Woburn, MA).
(§2) For oxidative pathways, the assay mixture was composed of human liver microsomes (1 mg·m·L^−1) or microsomes of baculovirus-infected cells expressing human enzymes (100 pmol·mL^−1 for CYPs and 1 mg·mL^−1 for FMOs and MAOs), nicotinamide adenine dinucleotide phosphate reduced form (NADPH) (1 mmol/L), 100 mmol/L potassium phosphate (pH 7.4), and 5 μmol/L of the investigated compound dissolved in DMSO in a final volume of 500 μL.
(§3) The final concentration of DMSO in the reaction mixture was less than 1% (v/v). Initial rate conditions with respect to time and protein concentration for both the disappearance of unchanged drug and the formation of respective metabolites were established in preliminary studies. The enzyme reaction was initiated by addition of NADPH (10 mmol/L aqueous solution) to achieve a final concentration of 1 mmol/L for oxidative CYP- and FMO-dependent reactions or by the drug for MAO-dependent reactions, incubated at 37°C and stopped after 0–30 min by addition of one volume of ice-cold acetonitrile.
(§4) In human liver microsomes and recombinant isoforms, the percentage of metabolism was determined on the basis of unchanged drug disappearance, using the following equation [drawing 1] where UDt = 30 min represents the unchanged drug peak area after a 30-min incubation period and UDt = 0, the unchanged drug peak area at t = 0.
(§5) To identify the specific isoforms that are capable of oxidizing dronedarone and its metabolites, assays were performed using c-DNA-expressed isoforms belonging to CYP- (CYP1A1, -1A2, -2A6, -2B6, -C8, -2C9, -2C18, -2C19, -2D6, -2E1, -3A4, and -3A5), FMO- (FMO-1, -3, and -5) and MAO- (MAO-A and MAO-B) families.
Figure 5 Contribution of individual CYPs, FMOs and MAOs to the oxidation of dronedarone and its metabolites. Individual CYPs (100 pmol/mL), FMOs (1 mg/mL) and MAOs (1 mg/mL) were incubated with either dronedarone (A) or its metabolites, N-debutyl-dronedarone (B), propanoic acid-dronedarone (C), and phenol-dronedarone (D), at a concentration of 5 μmol/L, for 30 min at 37°C in the presence of NADPH, except for MAOs where incubations were performed in the absence of cofactor. Unchanged drugs were quantified by LC/MS-MS relative to the synthetic references as described in Materials and Methods. Data are expressed as the percentage of oxidation.

MAO-A and MAO-B = assay: Oxidation by recombinant human MAOs; conditions: 1 mg/mL, 5 μmol/L, 30 min, no cofactor
Description: as §1, §2, §3, §4, §5
(§6) Figure 5 Contribution of individual CYPs, FMOs and MAOs to the oxidation of dronedarone and its metabolites. […] Unchanged drugs were quantified by LC/MS-MS relative to the synthetic references as described in Materials and Methods. Data are expressed as the percentage of oxidation.

[1] = Oxidative metabolism by human hepatic microsomal fractions with or without NADPH; conditions: 1 mg·mL^−1, 5 μmol/L, 30 min
Protocol: Human hepatic microsomal fractions were obtained from a large pool of human liver (150 individuals) prepared by BD Gentest-Biosciences (BD UltraPool™ HLM 150 – catalogue reference, 452118 Easy Count Box, Woburn, MA). This pooled human liver microsomal batch was also validated internally by the use of FDA-recommended CYP probes (FDA guidance for Industry, draft guidance February 2012).
as §2, §3
After removal of the proteins by centrifugation at 10,000 rpm for 10 min, a portion of the supernatant was analyzed by LC-UV-MS.
as §4
Dronedarone and its metabolites were incubated over 30 min with human hepatic microsomal fractions (1 mg·mL^−1) at a final concentration of 5 μmol/L, in the absence or the presence of 1 mmol/L NADPH, the cofactor for CYP- and FMO-dependent reactions.

[2] = system: UGT1A1, UGT1A3, UGT1A4, UGT1A6, UGT1A7, UGT1A8, UGT1A9, UGT1A10, UGT2B4, UGT2B7, UGT2B15, and UGT2B17; assay: Glucuronidation by the panel of recombinant human UGT isoforms; conditions: 1 mg/mL, 5 μmol/L, 30 min, UDPGA
Description: as §1
For glucuronidation pathways, the assay mixture was composed of human liver microsomes (2 mg·mL^−1) or microsomes of baculovirus-infected cells expressing human UGTs (1 mg·mL^−1), uridine 5′-diphosphoglucuronic acid (UDPGA) (3 mmol/L), 100 mmol/L Tris HCl (pH 7.4) containing 5 mmol/L MgCl2 and 5 μmol/L of the investigated compound dissolved in DMSO in a final volume of 500 μL. The final concentration of DMSO in the reaction mixture was less than 1% (v/v). Initial rate conditions with respect to time and protein concentration for both the disappearance of unchanged drug and the formation of respective metabolites were established in preliminary studies. The microsomal mixture was first incubated for 10 min at 4°C in the presence of alamethicin (0.125 mg·mL^−1), then the reaction was initiated by addition of UDPGA (30 mmol/L aqueous solution) to achieve a final concentration of 3 mmol/L for UGT-dependent reactions, incubated at 37°C and stopped after 0–30 min by addition of one volume of ice-cold acetonitrile. […]
Figure 7 Contribution of individual UGTs to the glucuronidation of propanoic acid-dronedarone and phenol-dronedarone. […] Unchanged drugs were quantified by LC/MS-MS relative to the synthetic references as described in Materials and Methods. Data are expressed as the percentage of glucuronidation.

CYP2D6 = target: T1, CYP2D6 (Homo sapiens, UniProt P10635); assay: Oxidation by recombinant human CYP2D6; conditions: for Percentage of oxidation (unchanged drug disappearance) by CYP2D6: 100 pmol/mL, 5 μmol/L, 30 min, NADPH
T1 construct: purchased BD Gentest (Woburn, MA); host or cells: baculovirus-infected insect cells
T1 sequence (P10635 whole entry): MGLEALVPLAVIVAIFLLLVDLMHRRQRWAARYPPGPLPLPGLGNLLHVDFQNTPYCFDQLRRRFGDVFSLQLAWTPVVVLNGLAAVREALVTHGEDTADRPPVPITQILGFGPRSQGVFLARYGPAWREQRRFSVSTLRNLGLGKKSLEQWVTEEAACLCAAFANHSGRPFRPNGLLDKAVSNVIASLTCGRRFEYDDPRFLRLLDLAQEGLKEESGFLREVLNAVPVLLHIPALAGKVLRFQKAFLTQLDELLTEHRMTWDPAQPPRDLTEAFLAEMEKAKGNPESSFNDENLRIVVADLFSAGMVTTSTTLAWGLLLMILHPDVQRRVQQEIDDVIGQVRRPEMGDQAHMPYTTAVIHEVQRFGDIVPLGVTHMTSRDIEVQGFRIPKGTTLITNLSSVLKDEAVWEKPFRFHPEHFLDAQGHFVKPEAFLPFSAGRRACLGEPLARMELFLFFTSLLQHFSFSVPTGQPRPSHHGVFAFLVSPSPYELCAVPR
Description: as §1, §2, §3, §4, §5, §6

SMILES	Oxidation by FMOs (FMO-1, -3, and -5)	Oxidation by MAOs (MAO-A and MAO-B)	Parent drug metabolized by human hepatic microsomes ([1]; absence of NADPH)	Parent drug metabolized by human hepatic microsomes ([1]; presence of 1 mmol/L NADPH)	Glucuronidation by recombinant human UGT isoforms [2]	Percentage of oxidation (unchanged drug disappearance) by CYP2D6 (CYP2D6)	Metabolite formed, as percent of initial dronedarone concentration, with CYP2D6 (CYP2D6; 5 μmol/L dronedarone, end of 30-min incubation)
CCCCc1oc2ccc(NS(C)(=O)=O)cc2c1C(=O)c1ccc(OCCC(=O)O)cc1 [Propanoic acid-dronedarone]	Neither other CYPs, nor FMOs and MAOs metabolized propanoic acid-dronedarone to any significant extent	Neither other CYPs, nor FMOs and MAOs metabolized propanoic acid-dronedarone to any significant extent	No metabolism occurred	50%	–	–	–
CCCCc1oc2ccc(NS(C)(=O)=O)cc2c1C(=O)c1ccc(OCCCN(CCCC)CCCC)cc1.Cl [Dronedarone, N-(2-Butyl-3-(4-(3-(dibutylamino)propoxy)benzoyl)-5-benzofuranyl)methanesulfonamide, hydrochloride]	not involved	not involved	not metabolized	~60%	No glucuronidation was observed	50%	–
CCCCNCCCOc1ccc(C(=O)c2c(CCCC)oc3ccc(NS(C)(=O)=O)cc23)cc1 [N-debutyl-dronedarone]	Neither other CYPs nor FMOs metabolized N-debutyl-dronedarone to any significant extent	–	25–30%	25–30%	No glucuronidation was observed	55%	less than 1%
CCCCc1oc2ccc(NS(C)(=O)=O)cc2c1C(=O)c1ccc(O)cc1 [Phenol-dronedarone]	contributed to a very small extent	contributed to a very small extent	very slow	very slow	–	94%	–
CCCCN(CCCC)CCCOc1ccc(C(=O)O)cc1 [C-dealkyl-dronedarone]	not metabolized	not metabolized	No metabolism was observed	No metabolism was observed	No glucuronidation was observed	–	–
